Experiment [1] has as its system Alpha-1 adrenergic receptors from rat brain cortex. Put plainly: [3H]Prazosin binding to alpha-1 adrenergic receptors from rat brain cortex (Protocol 4). Conditions: for r-α1 % Inh: r = rat, Inh @ 1 μM. The source says: [^3H]Prazosin Binding to Alpha-1 Adrenergic Receptors from Rat Brain Cortex
Objective: This in vitro assay is designed as a screen to identify compounds displaying a affinity for the a, adrenoceptor subtype in membranes from rat cortex. It measures the ability of the test compounds to displace [^3H]prazosin from the α1 sites.
Membrane Preparation: Rat brain tissue can be obtained from either fresh (male Wistar rats; 200-250 g) or frozen (male Sprague-Dawley 200-250 g from Harlan; cat. #BT-403) stocks. The cortex is dissected, homogenized in 50 vol (wet weight) ice-cold 50 mM Tris buffer (pH 7.7 at 25° C.). The homogenate is centrifuged at 48,000 g for 10 min, the pellet is resuspended in 50 mM Tris buffer and centrifuged a second time. The second pellet (P2) is resuspended to yield a concentration of 115 mg wet weight per 10 ml. […] Membranes should be mixed just before addition to ensure an even suspension. […] This is diluted to a 0.5 mM stock in dH2O. Serial dilutions in Buffer A are made from which 50 μl additions to the plate are made in duplicate in order to achieve the final concentrations desired. Typically, one 96 well plate is used to evaluate 11 compounds at 4 concentrations (10^−6-10^−9 M) in duplicate. Total binding and nonspecific binding are determined in quadruplicate. Usually one standard is run with each assay. • [^3H]Prazosin is made up in Buffer A such that when 50 μl are added per well the final concentration is […] in a final assay volume of 200 μl. The final concentration should be verified by running a sample in a scintillation counter prior to adding the [^3H]prazosin to the 96 well plate. Note: The radioactivity should be prepared just before the additions are made so that it is not allowed to sit on the bench for very long. • Packard GF/B Plate Pretreatment: The filter plates are presoaked for at least 30 min in ice cold Buffer B containing 0.05% polyethyleneimine (200 μl/200 ml) to maximize filtration efficiency and minimize filter blank binding. • Incubation & Filtration: Once buffer, compounds, [^3H]prazosin and membrane have been added (and mixed), the 96 well plates are incubated for 40 min at 37° C. and spaced 3-5 min apart. At 40 min, the plates are filtered using a Tomtec Automated Cell Harvester. Filtration is immediately followed by washes of ice cold Buffer B (total vol. ˜7 ml). • Drying and Counting: Each filter plate is dried under a heat lamp for 15 min. The back of the plate is sealed and 40 μl of Packard microscint fluid are added per well. Using Packard film, each plate is heat sealed prior to being counted in a Packard Topcount Scintillation counter. A program has been written that counts each plate twice sending DPM, CPM and TSIS data to disk and printer. • Analysis of Results: Raw DPM and CPM data are captured on disk and are imported into one of several software packages (Graphpad Prism Ver 2.0, Excel) residing on the LAN. Specific binding is defined as the difference between total binding and the binding in the presence of 10 μM phentolamine. Total binding is less than 10% of the total added ligand. Software using one-site competition curve analysis is employed in the calculation of IC50 and KI (Cheng-Prusoff equation, 1973). The top and bottom of the non-linear regression are held constant at 0% and 100% inhibition. The percent inhibition at each drug concentration is the mean of duplicate determinations.

In experiment [2] the target is T1, human dopamine D3 receptor (Homo sapiens, UniProt P35462).
T1 construct: expressed in transfected cells; host or cells: CHO cells
T1 sequence (P35462 whole entry): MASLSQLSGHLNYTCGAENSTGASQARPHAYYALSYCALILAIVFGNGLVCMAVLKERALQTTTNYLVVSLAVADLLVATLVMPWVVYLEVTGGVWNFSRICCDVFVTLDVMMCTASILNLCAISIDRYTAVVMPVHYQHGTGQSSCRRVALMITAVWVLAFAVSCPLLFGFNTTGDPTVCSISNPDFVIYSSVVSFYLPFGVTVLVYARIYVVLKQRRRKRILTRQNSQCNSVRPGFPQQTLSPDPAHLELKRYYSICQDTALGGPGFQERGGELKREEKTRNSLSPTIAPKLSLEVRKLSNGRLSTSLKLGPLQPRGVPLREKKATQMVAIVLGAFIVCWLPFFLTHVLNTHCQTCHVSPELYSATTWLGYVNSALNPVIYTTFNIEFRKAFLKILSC
Put plainly: Microphysiometer test of functional activity in CHO cells expressing human dopamine D3 receptor (quinpirole-induced acidification rate). The experiment is classed as cell-based. The following applies: test compound 10 nM, 100 nM, 1 uM; quinpirole 10 nM. The method, then:
The functional activity of compounds of the invention (i.e. whether they are antagonists, agonists or partial agonists) can readily be determined using the microphysiometer test method that follows:
Chinese Hamster Ovary (CHO) cells, expressing the human dopamine D3 receptor, were grown on the surface of a capsule cup. Cups are assembled and placed on the microphysiometer, and buffer (Dulbecco's Modified Eagle's Medium without sodium bicarbonate and without serum) is perfused through the cup assembly until a stable baseline is achieved (4 hours). Buffer perfusion rate and solution changes are controlled by a computer. Intracellular acidification rate is measured in each of the 8 cup assemblies and recorded by the computer. Buffer containing test compound (10 nM, 100 nM, and 1 uM) is perfused through the cup assembly for 20 min. Buffer containing quinpirole (10 nM) (a D3 agonist) and test compound (same concentrations) is perfused for an additional 1 min. This is followed by a recovery period of 10-60 min where buffer alone was perfused through the cups. Quinpirole increases the rate of acidification. If the test compound is a D3 antagonist, this increase will be inhibited in a concentration dependent manner.

Take `O=C(NCCCCN1CCCN(c2csc3cc(F)ccc23)CC1)c1ccc(OC(F)(F)F)cc1` [compound 822152]: in experiment [1], the “r-α1 % Inh” value is recorded as 14%.
On the same count and under the same terms, for `CC(C)(C)c1ccc(C(=O)NCCCCN2CCCN(c3csc4cc(F)ccc34)CC2)cc1` [compound 822198] the value was 0%.
As for `O=C(NCCCCN1CCN(c2csc3cc(C(F)(F)F)ccc23)CC1)c1cc2ccccc2s1` [814238A], in experiment [1] (@ 10 uM), the “rat alpha 1 % I” value worked out at 50% @ 10 uM.
Turning to `CCOc1ccc(C(=O)NCCCCN2CCN(c3csc4cc(C(F)(F)F)ccc34)CC2)cc1` [compound 815541], the “functional activity at D3 (inhibition of quinpirole-induced increase of acidification rate)” value in experiment [2] was “D3 antagonists”.
`COc1ccccc1C(=O)NCCCCN1CCCN(c2csc3cc(F)ccc23)CC1` [compound 822157]: the “r-α1 % Inh” value in experiment [1] is reported as 41%.
Still for that read-out and setting: for `O=C(NCCCCN1CCCN(c2csc3cc(F)ccc23)CC1)c1cccc(F)c1` [compound 822154] the value was 0%.

Values taken from patent US7550469B2, “Heterocyclic amide derivatives and their use as dopamine D3 receptor ligands” (Aventis Pharmaceuticals Inc., priority 2001, dated 2009).
